{"source": "ChEMBL document CHEMBL5154840", "about": "“Development of novel dipeptide nitriles as inhibitors of rhodesain of Trypanosoma brucei rhodesiense” (Eur J Med Chem, 2022)", "key": {"[1]": {"target": "Rhodesain (Trypanosoma brucei rhodesiense, UniProt Q95PM0)", "sequence (Q95PM0 whole entry)": "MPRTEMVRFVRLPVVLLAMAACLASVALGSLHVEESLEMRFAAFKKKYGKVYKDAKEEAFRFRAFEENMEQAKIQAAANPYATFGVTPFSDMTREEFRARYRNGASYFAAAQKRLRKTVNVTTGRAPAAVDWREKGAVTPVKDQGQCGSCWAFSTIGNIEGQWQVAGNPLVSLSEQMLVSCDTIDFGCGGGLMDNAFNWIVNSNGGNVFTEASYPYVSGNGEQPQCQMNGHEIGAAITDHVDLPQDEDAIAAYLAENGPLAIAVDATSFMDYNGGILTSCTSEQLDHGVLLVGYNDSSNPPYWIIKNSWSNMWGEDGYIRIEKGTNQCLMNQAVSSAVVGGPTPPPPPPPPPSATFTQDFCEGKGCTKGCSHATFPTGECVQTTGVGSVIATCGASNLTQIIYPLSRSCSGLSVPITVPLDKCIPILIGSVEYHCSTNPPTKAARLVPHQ", "assay": "Inhibition of full length Trypanosoma brucei rhodesiense rhodesain expressed in pichia pastoris using Cbz-Phe-Arg-AMC as substrate measured for 10 mins by fluorometric enzyme assays"}, "[2]": {"test_system": "Trypanosoma brucei brucei", "assay": "Antitrypanosomal activity against Trypanosoma brucei brucei measured after 24 hrs by ATPlite assay", "assay_type": "functional, organism-based"}, "[3]": {"test_system": "Trypanosoma brucei brucei", "assay": "Antitrypanosomal activity against Trypanosoma brucei brucei measured after 48 hrs by ATPlite assay", "assay_type": "functional, organism-based"}, "[4]": {"target": "Rhodesain (Trypanosoma brucei rhodesiense) (UniProt Q95PM0)", "sequence (Q95PM0 1-450)": "as the sequence (Q95PM0 whole entry) above", "assay": "Competitive inhibition of Trypanosoma brucei rhodesiense rhodesain expressed in pichia pastoris using varying concentration of Cbz-Phe-Arg-AMC as substrate by fluorometric enzyme assays"}}, "note": "The source made the active and inactive calls. No cut-off for these calls is given here.", "data": [{"smiles": "CC(C)C[C@H](NC(=O)c1ccccc1F)C(=O)N[C@H](C#N)CCc1ccccc1", "values": [{"measurement": "Ki", "setting": "[1]", "value": 0.032, "unit": "µM"}, {"measurement": "EC50", "setting": "[2]", "value": 21.1, "unit": "µM"}, {"measurement": "EC50", "setting": "[3]", "value": 32, "unit": "µM"}]}, {"smiles": "N#C[C@H](CCc1ccccc1)NC(=O)[C@H](Cc1ccccc1)NC(=O)c1c(F)cccc1F", "values": [{"measurement": "Ki", "setting": "[1]", "value": 0.122, "unit": "µM"}, {"measurement": "EC50", "setting": "[2]", "value": 5.3, "unit": "µM"}, {"measurement": "EC50", "setting": "[3]", "value": 8.8, "unit": "µM"}]}, {"smiles": "N#C[C@H](CCc1ccccc1)NC(=O)[C@H](Cc1ccccc1)NC(=O)c1ccc(F)cc1", "values": [{"measurement": "Ki", "setting": "[1]", "value": 0.07, "unit": "µM"}, {"measurement": "EC50", "setting": "[2]", "value": 10.6, "unit": "µM"}, {"measurement": "EC50", "setting": "[3]", "value": 14.5, "unit": "µM"}]}, {"smiles": "CC(C)C[C@H](NC(=O)c1ccc(F)cc1)C(=O)N[C@H](C#N)CCc1ccccc1", "values": [{"measurement": "Ki", "setting": "[1]", "value": 0.052, "unit": "µM"}, {"measurement": "EC50", "setting": "[2]", "value": 13.3, "unit": "µM"}, {"measurement": "EC50", "setting": "[3]", "value": 18.7, "unit": "µM"}]}, {"smiles": "N#C[C@H](CCc1ccccc1)NC(=O)[C@H](Cc1ccccc1)NC(=O)c1ccccc1F", "values": [{"measurement": "Ki", "setting": "[1]", "value": 0.112, "unit": "µM"}, {"measurement": "EC50", "setting": "[2]", "value": 10.3, "unit": "µM"}, {"measurement": "EC50", "setting": "[3]", "value": 11.6, "unit": "µM"}]}, {"smiles": "N#C[C@H](CCc1ccccc1)NC(=O)[C@H](Cc1ccccc1)NC(=O)c1ccc(F)cc1F", "values": [{"measurement": "EC50", "setting": "[2]", "value": 18.7, "unit": "µM"}, {"measurement": "EC50", "setting": "[3]", "value": 23.4, "unit": "µM"}]}, {"smiles": "CC(C)C[C@H](NC(=O)c1c(F)cccc1F)C(=O)N[C@H](C#N)CCc1ccccc1", "values": [{"measurement": "Ki", "setting": "[1]", "value": 0.052, "unit": "µM"}, {"measurement": "EC50", "setting": "[2]", "value": 18.6, "unit": "µM"}, {"measurement": "EC50", "setting": "[3]", "value": 27.1, "unit": "µM"}]}, {"smiles": "CC(C)C[C@H](NC(=O)c1ccc(F)cc1F)C(=O)N[C@H](C#N)CCc1ccccc1", "values": [{"measurement": "Ki", "setting": "[1]", "value": 0.066, "unit": "µM"}, {"measurement": "EC50", "setting": "[2]", "value": 19.3, "unit": "µM"}, {"measurement": "EC50", "setting": "[3]", "value": 22.5, "unit": "µM"}]}, {"smiles": "N#C[C@H](CCc1ccccc1)NC(=O)[C@H](Cc1ccccc1)NC(=O)c1cccc(F)c1", "values": [{"measurement": "Ki", "setting": "[1]", "value": 0.072, "unit": "µM"}, {"measurement": "EC50", "setting": "[2]", "value": 9.1, "unit": "µM"}, {"measurement": "EC50", "setting": "[3]", "value": 9.4, "unit": "µM"}]}, {"smiles": "CC(C)C[C@H](NC(=O)c1cccc(F)c1)C(=O)N[C@H](C#N)CCc1ccccc1", "values": [{"measurement": "Ki", "setting": "[1]", "value": 0.016, "unit": "µM"}, {"measurement": "inhibition", "setting": "[4]", "value": "Active"}, {"measurement": "EC50", "setting": "[2]", "value": 10.1, "unit": "µM"}, {"measurement": "EC50", "setting": "[3]", "value": 14.1, "unit": "µM"}]}]}
